Target: T1, HCV polymerase (Hepatitis C virus genotype 1b, UniProt P26663)
T1 construct: 2.5 pmoles (0.15 μg) HCV polymerase protein in a final volume of 75 μL
Experiment: HCV polymerase primer/template-directed transcription assay (32P-GTP incorporation, filter binding)
Type: biochemical
Conditions: for IC50: recombinant HCV polymerase, 30 minutes at 30° C., concentration giving 50% inhibition of polymerase-directed transcription, read-out: IC50
In short: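 Recombinant genotype 1b polymerase (30 nM) extended biotin-dG12 primer on poly(rC)300 template with 1 μM GTP plus α-32P-GTP, pH 7.2, 10 mM MgCl2, 30 min at 30° C, 1% DMSO final. Products captured on DE filters and counted. IC50 fitted from triplicate cpm, with a tight-binding correction applied below 200 nM.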

T1 sequence (P26663 2420-3010): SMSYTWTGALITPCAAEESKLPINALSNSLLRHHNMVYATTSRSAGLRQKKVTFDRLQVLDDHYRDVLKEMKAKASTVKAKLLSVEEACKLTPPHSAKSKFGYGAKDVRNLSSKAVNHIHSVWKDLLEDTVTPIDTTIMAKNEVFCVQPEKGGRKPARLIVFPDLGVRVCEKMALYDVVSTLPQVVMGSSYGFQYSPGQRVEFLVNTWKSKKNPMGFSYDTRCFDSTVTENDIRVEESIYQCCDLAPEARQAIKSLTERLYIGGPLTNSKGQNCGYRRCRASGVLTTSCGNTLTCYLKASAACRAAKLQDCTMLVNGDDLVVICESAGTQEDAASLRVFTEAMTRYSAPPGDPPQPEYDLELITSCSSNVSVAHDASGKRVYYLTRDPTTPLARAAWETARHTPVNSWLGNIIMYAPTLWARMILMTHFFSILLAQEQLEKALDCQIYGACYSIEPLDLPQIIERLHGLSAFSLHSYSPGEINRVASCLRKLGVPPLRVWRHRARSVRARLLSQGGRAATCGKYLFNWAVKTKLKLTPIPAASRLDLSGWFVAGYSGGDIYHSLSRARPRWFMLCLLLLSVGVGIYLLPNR

SMILES	IC50 [nM]	also measured
COc1ccc(CCC2(C3CCCC3)CC(=O)C(Cc3nc4ccccc4n3C)C(=O)O2)cc1Cl (stereo not shown) [B(84), 6-[2-(3-chloro-4-methoxyphenyl)ethyl]-6-cyclopentyl-3-[(1-methyl-1H-benzimidazol-2-yl)methyl]dihydro-2H-pyran-2,4(3H)-dione]	110	–
COc1ccc(CCC2(C3CCCC3)CC(=O)C(Cc3ccc4ccccc4n3)C(=O)O2)cc1Cl (stereo not shown) [B(85), 6-[2-(3-chloro-4-methoxyphenyl)ethyl]-6-cyclopentyl-3-(quinolin-2-ylmethyl)dihydro-2H-pyran-2,4(3H)-dione]	740	–
COc1ccc(CCC2(C3CCCC3)CC(O)=C(C(=O)Cc3cc(C)no3)C(=O)O2)c(OC)c1 (stereo not shown) [B(86), 6-Cyclopentyl-6-[2-(2,4-dimethoxy-phenyl)-ethyl]-4-hydroxy-3-[2-(3-methyl-isoxazol-5-yl)-acetyl]-5,6-dihydro-pyran-2-one]	22100	–
COc1ccc(CCC2(C3CCCC3)CC(O)=C(C(=O)Cc3ccccn3)C(=O)O2)cc1Cl (stereo not shown) [B(87), 6-[2-(3-Chloro-4-methoxy-phenyl)-ethyl]-6-cyclopentyl-4-hydroxy-3-(2-pyridin-2-yl-acetyl)-5,6-dihydro-pyran-2-one]	1800	–
COc1ccc(CCC2(C3CCCC3)CC(O)=C(C(C)=O)C(=O)O2)cc1Cl (stereo not shown) [B(88), 3-Acetyl-6-[2-(3-chloro-4-methoxy-phenyl)-ethyl]-6-cyclopentyl-4-hydroxy-5,6-dihydro-pyran-2-one]	5100	–
Cc1csc2nc(CC3=C(O)CC(CCc4ccc(C(F)F)c(F)c4)(C4CCCC4)OC3=O)cc(=O)n12 (stereo not shown) [B(89), 7-[(6-Cyclopentyl-6-{2-[4-(difluoromethyl)-3-fluorophenyl]ethyl}-4-hydroxy-2-oxo-5,6-dihydro-2H-pyran-3-yl)methyl]-3-methyl-5H-[1,3]thiazolo[3,2-a]pyrimidin-5-one]	185	–
COc1cc(OC)c(CCC2(C3CCCC3)CC(O)=C(Cc3cn4cccnc4n3)C(=O)O2)cc1Cl (stereo not shown) [B(90), 6-[2-(5-chloro-2,4-dimethoxyphenyl)ethyl]-6-cyclopentyl-4-hydroxy-3-(imidazo[1,2-a]pyrimidin-2-ylmethyl)-5,6-dihydro-2H-pyran-2-one]	6	–
CCc1cc(CCC2(C3CCCC3)CC(=O)C(Cc3nc4nc(C)cc(C)n4n3)C(=O)O2)ccc1N(C)S(C)(=O)=O (stereo not shown) [B(91), 6N-[4-(2-{2-cyclopentyl-5-[(5,7-dimethyl[1,2,4]triazolo[1,5-a]pyrimidin-2-yl)methyl]-4,6-dioxotetrahydro-2H-pyran-2-yl}ethyl)-2-ethylphenyl]-N-methylmethanesulfonamide]	10	–
Cn1ccc2cc(CC3=C(O)CC(CCc4ccc(C(C)(C)C#N)c(F)c4)(C4CCCC4)OC3=O)ccc21 (stereo not shown) [B(92), 2-[4-(2-{2-cyclopentyl-4-hydroxy-5-[(1-methyl-1H-indol-5-yl)methyl]-6-oxo-3,6-dihydro-2H-pyran-2-yl}ethyl)-2-fluorophenyl]-2-methylpropanenitrile]	8	–
CC(C)(C#N)c1ccc(CCC2(C3CCCC3)CC(O)=C(Cc3cn[nH]c3)C(=O)O2)cc1F (stereo not shown) [B(93), 2-(4-{2-[2-cyclopentyl-4-hydroxy-6-oxo-5-(1H-pyrazol-4-ylmethyl)-3,6-dihydro-2H-pyran-2-yl]ethyl}-2-fluorophenyl)-2-methylpropanenitrile]	90	–
Cc1cc(C)n2nc(CC3=C(O)CC(CCc4ccc(O)c(C(C)C)c4)(C4CCCC4)OC3=O)nc2n1 (stereo not shown) [B(94), 6-Cyclopentyl-3-(5,7-dimethyl-[1,2,4]triazolo[1,5-a]pyrimidin-2-ylmethyl)-4-hydroxy-6-[2-(4-hydroxy-3-isopropyl-phenyl)-ethyl]-5,6-dihydro-pyran-2-one]	–	percent inhibition (compound concentration not given): 1%
Cc1cc(C)n2nc(CC3=C(O)CC(CCc4ccc(O)c(Cl)c4)(C4CCCC4)OC3=O)nc2n1 (stereo not shown) [B(95), 6-[2-(3-Chloro-4-hydroxy-phenyl)-ethyl]-6-cyclopentyl-3-(5,7-dimethyl-[1,2,4]triazolo[1,5-a]pyrimidin-2-ylmethyl)-4-hydroxy-5,6-dihydro-pyran-2-one]	13	–
CCc1cc(CCC2(C3CCCC3)CC(O)=C(Cc3nc4nc(C)cc(C)n4n3)C(=O)O2)ccc1OC (stereo not shown) [B(96), 6-Cyclopentyl-3-(5,7-dimethyl-[1,2,4]triazolo[1,5-a]pyrimidin-2-ylmethyl)-6-[2-(3-ethyl-4-methoxy-phenyl)-ethyl]-4-hydroxy-5,6-dihydro-pyran-2-one]	5	–
CCc1cc(CCC2(C3CCCC3)CC(O)=C(Cc3nc4nc(C)cc(C)n4n3)C(=O)O2)cc(Cl)c1OC (stereo not shown) [B(97), 6-[2-(3-Chloro-5-ethyl-4-methoxy-phenyl)-ethyl]-6-cyclopentyl-3-(5,7-dimethyl-[1,2,4]triazolo[1,5-a]pyrimidin-2-ylmethyl)-4-hydroxy-5,6-dihydro-pyran-2-one]	9	–
CCc1ccc(OC)c(CCC2(C3CCCC3)CC(O)=C(Cc3nc4nc(C)cc(C)n4n3)C(=O)O2)c1 (stereo not shown) [B(98), 6-Cyclopentyl-3-(5,7-dimethyl-[1,2,4]triazolo[1,5-a]pyrimidin-2-ylmethyl)-6-[2-(5-ethyl-2-methoxy-phenyl)-ethyl]-4-hydroxy-5,6-dihydro-pyran-2-one]	6	–
CCOc1ccc(CCC2(C3CCCC3)CC(O)=C(Cc3nc4nc(C)cc(C)n4n3)C(=O)O2)cc1CC (stereo not shown) [B(99), 6-Cyclopentyl-3-(5,7-dimethyl-[1,2,4]triazolo[1,5-a]pyrimidin-2-ylmethyl)-6-[2-(4-ethoxy-3-ethyl-phenyl)-ethyl]-4-hydroxy-5,6-dihydro-pyran-2-one]	350	–
CCc1cc(CCC2(C3CCCC3)CC(O)=C(Cc3nc4nc(C)cc(C)n4n3)C(=O)O2)cc(Cl)c1O (stereo not shown) [B(100), 6-[2-(3-Chloro-5-ethyl-4-hydroxy-phenyl)-ethyl]-6-cyclopentyl-3-(5,7-dimethyl-[1,2,4]triazolo[1,5-a]pyrimidin-2-ylmethyl)-4-hydroxy-5,6-dihydro-pyran-2-one]	3	–
CCc1cc(CCC2(C3CCCC3)CC(=O)CC(=O)O2)cc(Cl)c1O (stereo not shown) [B(101), 6-[2-(3-Chloro-5-ethyl-4-hydroxy-phenyl)-ethyl]-6-cyclopentyl-dihydro-pyran-2,4-dione]	610	–
CCc1cc(CCC2(C3CCCC3)CC(O)=C(Cc3nc4nc(C)cc(C)n4n3)C(=O)O2)ccc1OC(C)C (stereo not shown) [B(102), 6-Cyclopentyl-3-(5,7-dimethyl-[1,2,4]triazolo[1,5-a]pyrimidin-2-ylmethyl)-6-[2-(3-ethyl-4-isopropoxy-phenyl)-ethyl]-4-hydroxy-5,6-dihydro-pyran-2-one]	500	–
COc1ccc(CCC2(C3CCCC3)CC(O)=C(Cc3nc4nc(C)cc(C)n4n3)C(=O)O2)c(F)c1 (stereo not shown) [B(103), 6-Cyclopentyl-3-(5,7-dimethyl-[1,2,4]triazolo[1,5-a]pyrimidin-2-ylmethyl)-6-[2-(2-fluoro-4-methoxy-phenyl)-ethyl]-4-hydroxy-5,6-dihydro-pyran-2-one]	107	–
CCc1cc(CCC2(C3CCCC3)CC(O)=C(Cc3nc4nc(C)cc(C)n4n3)C(=O)O2)ccc1OCCO (stereo not shown) [B(104), 6-Cyclopentyl-3-(5,7-dimethyl-[1,2,4]triazolo[1,5-a]pyrimidin-2-ylmethyl)-6-{2-[3-ethyl-4-(2-hydroxy-ethoxy)-phenyl]-ethyl}-4-hydroxy-5,6-dihydro-pyran-2-one]	3	–
Cc1cc(C)n2nc(CC3=C(O)CC(CCc4ccc(O)c(F)c4)(C4CCCC4)OC3=O)nc2n1 (stereo not shown) [B(105), 6-Cyclopentyl-3-(5,7-dimethyl-[1,2,4]triazolo[1,5-a]pyrimidin-2-ylmethyl)-6-[2-(3-fluoro-4-hydroxy-phenyl)-ethyl]-4-hydroxy-5,6-dihydro-pyran-2-one]	46	–
COc1ccc(CCC2(C3CCCC3)CC(O)=C(Cc3nc4nc(C)cc(C)n4n3)C(=O)O2)cc1C1CC1 (stereo not shown) [B(107), 6-Cyclopentyl-6-[2-(3-cyclopropyl-4-methoxy-phenyl)-ethyl]-3-(5,7-dimethyl-[1,2,4]triazolo[1,5-a]pyrimidin-2-ylmethyl)-4-hydroxy-5,6-dihydro-pyran-2-one]	6	–
Cc1cc(C)n2nc(CC3=C(O)CC(CCC(=O)NC4CCN(C(=O)OC(C)(C)C)CC4)(C4CCCC4)OC3=O)nc2n1 (stereo not shown) [B(109), 4-{3-[2-Cyclopentyl-5-(5,7-dimethyl-[1,2,4]triazolo[1,5-a]pyrimidin-2-ylmethyl)-4-hydroxy-6-oxo-3,6-dihydro-2H-pyran-2-yl]-propionylamino}-piperidine-1-carboxylic acid tert-butyl ester]	–	inhibition at 50 µM (@ 50 uM compound, given where IC50 was impractical to calculate, read-out: percent inhibition): 23%
CCc1cc(CCC2(C3CCCC3)CC(O)=C(Cc3nc[nH]c3C)C(=O)O2)ccc1O (stereo not shown) [B(110), 6-Cyclopentyl-6-[2-(3-ethyl-4-hydroxy-phenyl)-ethyl]-4-hydroxy-3-(5-methyl-1H-imidazol-4-ylmethyl)-5,6-dihydro-pyran-2-one]	107	–
CCc1nc(CC2=C(O)CC(CCc3ccc(O)c(CC)c3)(C3CCCC3)OC2=O)c(C)[nH]1 (stereo not shown) [B(111), 6-Cyclopentyl-6-[2-(3-ethyl-4-hydroxy-phenyl)-ethyl]-3-(2-ethyl-5-methyl-1H-imidazol-4-ylmethyl)-4-hydroxy-5,6-dihydro-pyran-2-one]	321	–
Cc1cc(C)n2nc(CC3=C(O)CC(CCc4ccc([C@@H](C)O)cc4)(C4CCCC4)OC3=O)nc2n1 (stereo partly shown) [B(112), 6-Cyclopentyl-3-(5,7-dimethyl-[1,2,4]triazolo[1,5-a]pyrimidin-2-ylmethyl)-4-hydroxy-6-{2-[4-(1-hydroxy-ethyl)-phenyl]-ethyl}-5,6-dihydro-pyran-2-one]	97	–
CCc1cc(CCC2(C3CCCC3)CC(O)=C(Cc3nc4nc(C)cc(C)n4n3)C(=O)O2)ccc1Cl (stereo not shown) [B(113), 6-[2-(4-Chloro-3-ethyl-phenyl)-ethyl]-6-cyclopentyl-3-(5,7-dimethyl-[1,2,4]triazolo[1,5-a]pyrimidin-2-ylmethyl)-4-hydroxy-5,6-dihydro-pyran-2-one]	19	–

— patent publication US7473790B2 (Pfizer Inc., priority 2003, dated 2009)
